Measurements from US8959984B2, “Proteome-wide quantification of small molecule binding to cellular target proteins” (priority 2007, dated 2015).

Assays:
Experiment in all cases: binding to VI16742 beads (HeLa lysate, SILAC MS)
[1] = target: T1, PKACb (PRKACB, IPI00376119) (Homo sapiens, UniProt P22694)
T1 construct: endogenous in cells; host or cells: HeLa S3
Description: (§1) In an alternative implementation of the chemical proteomic approach according to the invention, the broadly-selective pyrido[2,3-d]pyrimidine-based kinase inhibitor VI16742 has been used for affinity capture (FIG. 10a). […] As shown by gene ontology analysis, the corresponding molecular functions were highly over-represented in proteins specifically retained by the inhibitor resin (FIG. 10b).

AGL (IPI00328318) = target: T2, AGL (IPI00328318) (Homo sapiens, UniProt P35573)
T2 construct: endogenous in cells; host or cells: HeLa S3
Description: as §1

GLO1 (IPI00220766) = target: T3, GLO1 (IPI00220766) (Homo sapiens, UniProt Q04760)
T3 construct: endogenous in cells; host or cells: HeLa S3
T3 sequence (Q04760 2-184 limits assumed): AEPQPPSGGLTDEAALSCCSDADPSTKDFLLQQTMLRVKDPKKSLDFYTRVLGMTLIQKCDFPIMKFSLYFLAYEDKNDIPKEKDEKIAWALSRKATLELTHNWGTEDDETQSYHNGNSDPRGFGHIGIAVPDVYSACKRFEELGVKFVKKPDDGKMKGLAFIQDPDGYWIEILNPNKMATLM
Description: as §1

SLK (IPI00022827) = target: T4, SLK (IPI00022827) (Homo sapiens, UniProt Q9H2G2)
T4 construct: endogenous in cells; host or cells: HeLa S3
Description: as §1

[2] = target: T5, IKKb (IKBKB, IPI00024709) (Homo sapiens, UniProt O14920)
T5 construct: endogenous in cells; host or cells: HeLa S3
T5 sequence (O14920 1-756): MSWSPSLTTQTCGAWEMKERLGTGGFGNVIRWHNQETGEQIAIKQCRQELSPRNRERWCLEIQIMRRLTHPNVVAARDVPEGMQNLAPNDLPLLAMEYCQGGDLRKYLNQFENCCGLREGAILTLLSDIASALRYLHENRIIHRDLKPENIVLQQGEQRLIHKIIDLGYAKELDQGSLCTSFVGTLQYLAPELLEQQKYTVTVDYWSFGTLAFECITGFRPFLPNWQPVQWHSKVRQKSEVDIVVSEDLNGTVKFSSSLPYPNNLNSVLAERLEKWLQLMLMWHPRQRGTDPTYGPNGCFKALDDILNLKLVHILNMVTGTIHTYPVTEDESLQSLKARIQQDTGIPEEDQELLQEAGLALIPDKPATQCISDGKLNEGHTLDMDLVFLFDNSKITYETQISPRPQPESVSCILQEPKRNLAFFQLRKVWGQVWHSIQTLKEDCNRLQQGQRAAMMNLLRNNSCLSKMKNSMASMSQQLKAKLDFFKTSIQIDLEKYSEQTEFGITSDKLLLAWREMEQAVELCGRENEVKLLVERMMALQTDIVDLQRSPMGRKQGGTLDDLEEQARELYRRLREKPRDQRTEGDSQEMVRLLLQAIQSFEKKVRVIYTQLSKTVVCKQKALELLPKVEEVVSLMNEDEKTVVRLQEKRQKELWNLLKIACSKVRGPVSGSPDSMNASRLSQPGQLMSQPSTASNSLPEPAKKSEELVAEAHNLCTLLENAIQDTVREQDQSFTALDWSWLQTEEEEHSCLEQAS
Description: as §1

2-PDE (IPI00174390) = target: T6, 2-PDE (IPI00174390) (Homo sapiens, UniProt Q6L8Q7)
T6 construct: endogenous in cells; host or cells: HeLa S3 cell lysate
T6 sequence (Q6L8Q7 43-609): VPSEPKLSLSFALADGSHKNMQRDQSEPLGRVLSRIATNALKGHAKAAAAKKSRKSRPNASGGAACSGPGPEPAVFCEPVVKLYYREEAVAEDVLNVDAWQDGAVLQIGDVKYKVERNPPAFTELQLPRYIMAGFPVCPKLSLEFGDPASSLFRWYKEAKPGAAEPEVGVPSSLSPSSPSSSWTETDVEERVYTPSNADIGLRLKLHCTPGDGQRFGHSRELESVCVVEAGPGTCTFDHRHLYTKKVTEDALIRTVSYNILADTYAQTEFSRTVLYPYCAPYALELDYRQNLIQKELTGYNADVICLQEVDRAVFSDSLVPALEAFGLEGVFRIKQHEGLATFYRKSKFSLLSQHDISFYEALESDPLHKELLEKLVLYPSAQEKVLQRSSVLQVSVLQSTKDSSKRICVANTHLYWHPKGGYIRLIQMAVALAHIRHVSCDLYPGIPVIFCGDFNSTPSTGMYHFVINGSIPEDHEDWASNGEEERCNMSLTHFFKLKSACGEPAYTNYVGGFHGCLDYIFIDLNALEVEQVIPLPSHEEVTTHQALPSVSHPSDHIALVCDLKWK
Description: as §1

MAP2K2 (IPI00003783) = target: T7, MAP2K2 (IPI00003783) (Homo sapiens, UniProt P36507)
T7 construct: endogenous in cells; host or cells: HeLa S3
Description: as §1

ILK (IPI00013219) = target: T8, ILK (IPI00013219) (Homo sapiens, UniProt Q13418)
T8 construct: endogenous in cells; host or cells: HeLa S3
T8 sequence (Q13418 1-452): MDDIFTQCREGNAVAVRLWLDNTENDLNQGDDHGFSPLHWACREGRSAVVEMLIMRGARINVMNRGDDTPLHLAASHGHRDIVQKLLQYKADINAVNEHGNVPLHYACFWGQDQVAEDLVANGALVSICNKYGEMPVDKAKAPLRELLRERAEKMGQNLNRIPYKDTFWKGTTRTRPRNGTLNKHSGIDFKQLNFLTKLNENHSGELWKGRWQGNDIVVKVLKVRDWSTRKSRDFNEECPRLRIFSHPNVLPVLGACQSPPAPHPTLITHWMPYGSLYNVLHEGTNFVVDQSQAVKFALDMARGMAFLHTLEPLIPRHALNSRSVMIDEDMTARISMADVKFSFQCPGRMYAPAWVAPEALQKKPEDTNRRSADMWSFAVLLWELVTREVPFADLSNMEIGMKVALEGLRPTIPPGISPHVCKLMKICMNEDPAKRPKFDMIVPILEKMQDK
Description: as §1

[3] = control beads vs first incubation

T2 sequence (P35573 whole entry): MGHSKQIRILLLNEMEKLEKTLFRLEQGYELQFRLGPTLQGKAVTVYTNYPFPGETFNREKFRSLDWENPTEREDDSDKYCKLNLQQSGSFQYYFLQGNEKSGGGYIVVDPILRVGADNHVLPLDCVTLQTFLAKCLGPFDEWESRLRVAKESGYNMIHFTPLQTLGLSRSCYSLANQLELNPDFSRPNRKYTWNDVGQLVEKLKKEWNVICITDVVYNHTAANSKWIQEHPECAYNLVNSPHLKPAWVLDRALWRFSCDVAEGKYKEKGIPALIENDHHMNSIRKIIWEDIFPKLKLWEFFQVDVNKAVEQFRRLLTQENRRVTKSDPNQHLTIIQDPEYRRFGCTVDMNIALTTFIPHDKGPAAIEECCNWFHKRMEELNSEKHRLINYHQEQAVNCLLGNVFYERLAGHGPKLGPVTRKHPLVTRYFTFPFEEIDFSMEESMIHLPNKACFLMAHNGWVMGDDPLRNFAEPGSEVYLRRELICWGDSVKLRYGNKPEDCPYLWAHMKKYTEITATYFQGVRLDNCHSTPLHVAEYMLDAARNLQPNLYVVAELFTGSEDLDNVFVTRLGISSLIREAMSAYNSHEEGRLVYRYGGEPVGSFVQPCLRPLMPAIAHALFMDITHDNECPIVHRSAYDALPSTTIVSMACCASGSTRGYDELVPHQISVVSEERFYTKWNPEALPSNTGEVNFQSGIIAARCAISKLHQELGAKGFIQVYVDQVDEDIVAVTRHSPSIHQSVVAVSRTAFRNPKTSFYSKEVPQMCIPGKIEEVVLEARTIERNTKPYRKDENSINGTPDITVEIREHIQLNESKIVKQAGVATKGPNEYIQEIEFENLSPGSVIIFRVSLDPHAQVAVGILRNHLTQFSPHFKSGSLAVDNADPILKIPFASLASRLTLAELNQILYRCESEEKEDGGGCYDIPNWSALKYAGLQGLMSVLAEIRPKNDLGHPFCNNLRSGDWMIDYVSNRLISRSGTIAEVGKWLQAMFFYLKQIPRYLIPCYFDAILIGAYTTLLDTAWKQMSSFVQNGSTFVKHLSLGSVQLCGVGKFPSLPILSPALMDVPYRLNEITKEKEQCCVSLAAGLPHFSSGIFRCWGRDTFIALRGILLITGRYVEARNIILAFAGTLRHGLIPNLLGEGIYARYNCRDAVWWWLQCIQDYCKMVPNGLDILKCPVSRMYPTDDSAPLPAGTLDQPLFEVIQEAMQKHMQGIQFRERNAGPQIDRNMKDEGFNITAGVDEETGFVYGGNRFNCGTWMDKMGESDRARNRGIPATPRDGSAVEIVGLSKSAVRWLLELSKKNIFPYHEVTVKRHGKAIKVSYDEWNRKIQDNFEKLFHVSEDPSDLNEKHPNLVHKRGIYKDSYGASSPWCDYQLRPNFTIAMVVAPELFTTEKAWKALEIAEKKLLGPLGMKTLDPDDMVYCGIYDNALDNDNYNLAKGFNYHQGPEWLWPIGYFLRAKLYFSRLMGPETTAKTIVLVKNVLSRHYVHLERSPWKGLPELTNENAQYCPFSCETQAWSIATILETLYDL
T4 sequence (Q9H2G2 whole entry): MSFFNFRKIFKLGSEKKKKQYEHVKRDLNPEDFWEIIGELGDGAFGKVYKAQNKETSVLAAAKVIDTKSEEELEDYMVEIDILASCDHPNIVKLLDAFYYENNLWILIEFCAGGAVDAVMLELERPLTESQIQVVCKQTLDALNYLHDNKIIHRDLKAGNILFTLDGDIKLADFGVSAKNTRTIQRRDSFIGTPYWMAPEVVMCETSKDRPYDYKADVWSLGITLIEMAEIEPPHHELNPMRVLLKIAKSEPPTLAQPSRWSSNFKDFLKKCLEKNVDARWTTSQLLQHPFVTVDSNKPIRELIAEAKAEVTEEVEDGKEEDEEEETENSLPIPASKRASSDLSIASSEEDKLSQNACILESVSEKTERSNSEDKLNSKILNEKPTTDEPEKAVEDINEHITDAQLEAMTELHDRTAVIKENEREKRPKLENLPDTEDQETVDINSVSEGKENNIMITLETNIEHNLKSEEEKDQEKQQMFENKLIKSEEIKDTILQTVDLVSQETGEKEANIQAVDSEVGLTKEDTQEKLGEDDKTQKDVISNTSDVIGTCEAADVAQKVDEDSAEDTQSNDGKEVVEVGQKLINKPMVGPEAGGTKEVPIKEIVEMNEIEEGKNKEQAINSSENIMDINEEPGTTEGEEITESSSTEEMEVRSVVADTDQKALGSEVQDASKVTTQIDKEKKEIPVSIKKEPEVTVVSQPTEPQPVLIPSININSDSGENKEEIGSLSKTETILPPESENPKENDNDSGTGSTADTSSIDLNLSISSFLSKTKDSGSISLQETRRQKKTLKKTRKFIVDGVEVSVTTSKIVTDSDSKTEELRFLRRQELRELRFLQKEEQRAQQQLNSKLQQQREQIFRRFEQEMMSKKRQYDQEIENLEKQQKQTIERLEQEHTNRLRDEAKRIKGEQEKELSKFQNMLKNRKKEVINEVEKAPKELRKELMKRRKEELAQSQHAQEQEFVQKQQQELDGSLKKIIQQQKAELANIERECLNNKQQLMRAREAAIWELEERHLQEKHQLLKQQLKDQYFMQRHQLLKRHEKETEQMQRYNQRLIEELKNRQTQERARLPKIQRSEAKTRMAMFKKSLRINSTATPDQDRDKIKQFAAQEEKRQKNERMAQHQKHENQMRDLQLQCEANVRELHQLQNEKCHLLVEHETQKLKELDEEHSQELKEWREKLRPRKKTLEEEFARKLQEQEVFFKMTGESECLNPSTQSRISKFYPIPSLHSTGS
T7 sequence (P36507 whole entry): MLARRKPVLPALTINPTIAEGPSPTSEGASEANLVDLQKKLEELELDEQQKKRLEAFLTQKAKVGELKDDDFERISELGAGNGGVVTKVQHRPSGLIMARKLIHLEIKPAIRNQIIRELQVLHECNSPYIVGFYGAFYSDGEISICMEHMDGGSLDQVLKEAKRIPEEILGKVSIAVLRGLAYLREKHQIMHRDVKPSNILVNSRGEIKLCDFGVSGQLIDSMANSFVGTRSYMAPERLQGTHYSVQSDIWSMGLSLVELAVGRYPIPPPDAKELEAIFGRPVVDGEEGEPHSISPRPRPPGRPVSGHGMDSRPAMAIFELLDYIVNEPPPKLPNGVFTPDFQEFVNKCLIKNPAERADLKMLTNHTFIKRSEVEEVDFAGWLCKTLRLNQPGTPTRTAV

CC(C)n1c(=O)ccc2cnc(Nc3ccc(OCCN)cc3)nc21 [V16742]
rAVERAGE (CTRL/1 INC) [1, 3]: 0.01 | Ki ([1]; immobilized VI16742): 390 µM | rAVERAGE (2 INC/1 INC) ([1]; second vs first incubation): 0.88 | rAVERAGE (CTRL/1 INC) (AGL (IPI00328318); [3]): 0.08 | Ki (AGL (IPI00328318); immobilized VI16742): 218 µM | rAVERAGE (2 INC/1 INC) (AGL (IPI00328318); second vs first incubation): 0.81 | r (5 h/2.5 h INC. TIME) (GLO1 (IPI00220766); 5 h vs 2.5 h incubation time): 1.39 | rAVERAGE (CTRL/1 INC) (GLO1 (IPI00220766); [3]): 0.07 | Ki (GLO1 (IPI00220766); immobilized VI16742): 133 µM | rAVERAGE (2 INC/1 INC) (GLO1 (IPI00220766); second vs first incubation): 0.72 | r (3 MG/1 MG LYSATE) (SLK (IPI00022827); 3 mg vs 1 mg lysate): 3.22 | r (5 h/2.5 h INC. TIME) (SLK (IPI00022827); 5 h vs 2.5 h incubation time): 1.87 | rAVERAGE (CTRL/1 INC) (SLK (IPI00022827); [3]): 0.05 | Ki (SLK (IPI00022827); immobilized VI16742): 217 µM | rAVERAGE (2 INC/1 INC) (SLK (IPI00022827); second vs first incubation): 0.81 | rAVERAGE (CTRL/1 INC) [2, 3]: 0.06 | Ki ([2]; immobilized VI16742): 201 µM | rAVERAGE (2 INC/1 INC) ([2]; second vs first incubation): 0.79 | rAVERAGE (CTRL/1 INC) (2-PDE (IPI00174390); [3]): 0.03 | Ki (2-PDE (IPI00174390); immobilized VI16742): 100 µM | rAVERAGE (2 INC/1 INC) (2-PDE (IPI00174390); second vs first incubation): 0.66 | r (5 h/2.5 h INC. TIME) (MAP2K2 (IPI00003783); 5 h vs 2.5 h incubation time): 2.03 | rAVERAGE (CTRL/1 INC) (MAP2K2 (IPI00003783); [3]): 0.03 | Ki (MAP2K2 (IPI00003783); immobilized VI16742): 177 µM | rAVERAGE (2 INC/1 INC) (MAP2K2 (IPI00003783); second vs first incubation): 0.77 | r (5 h/2.5 h INC. TIME) (ILK (IPI00013219); 5 h vs 2.5 h incubation time): 1.47 | rAVERAGE (CTRL/1 INC) (ILK (IPI00013219); [3]): 0.03 | Ki (ILK (IPI00013219); immobilized VI16742): 172 µM | rAVERAGE (2 INC/1 INC) (ILK (IPI00013219); second vs first incubation): 0.77
